Measurements from patent US20150374623A1, “DEAMORPHIZATION OF SPRAY-DRIED FORMULATIONS VIA SPRAY-BLENDING” (NOVARTIS AG, priority 2013, published 2015).
In brackets after ≈: the same amount, converted by molar mass. Where a name gives a salt, the structure may show the parent alone. Read-outs that look alike come from different tables or passages of the source.

Key:
[1] = Solubility of indacaterol maleate in water and in maleate buffer; assay type: physicochemical
Protocol: In Lot II, the concentration of indacaterol in Feedline A was 18% w/w and the concentration in the spray-blended bulk powder was just 4.1% w/w, as the remaining spray dried particles from Feedlines B and C contained no API.
Lot IV is formulated like Lot II except 20 mM sodium maleate (pH 5.5) was added to Feedline A. Sodium maleate was added to decrease the indacaterol solubility in water to about, 0.01 mg/ml (common ion effect). In this case, spray-blending reduced the dissolved indacaterol in the feedstock from about, 8.0% to 0.1%.
Estimated % Dissolved was calculated based on the feedstock compositions according to equation 1. The solubility of indacaterol in water is 0.2 mg/ml, and 0.01 mg/ml in 20 mM maleate buffer. The decreased solubility in maleate buffer is the result of the shift in the equilibrium towards precipitation of indacaterol maleate which occurs as a result of the addition of a common ion. The impact of spray-blending on the dissolved fraction is clearly evident by comparing Lots I and VI. In the spray-blended Lot I, the total drug loading is 1.4%, yet the dissolved fraction is just 4.9%. In contrast, for the single feedstock Lot VI, the drug content is actually higher (2%), yet the dissolved fraction is nearly 15%.

[2] = molecular target: β2-adrenoceptor (Homo sapiens, UniProt P07550); details: cited from earlier work
β2-adrenoceptor, sequence (P07550 whole entry, species assumed): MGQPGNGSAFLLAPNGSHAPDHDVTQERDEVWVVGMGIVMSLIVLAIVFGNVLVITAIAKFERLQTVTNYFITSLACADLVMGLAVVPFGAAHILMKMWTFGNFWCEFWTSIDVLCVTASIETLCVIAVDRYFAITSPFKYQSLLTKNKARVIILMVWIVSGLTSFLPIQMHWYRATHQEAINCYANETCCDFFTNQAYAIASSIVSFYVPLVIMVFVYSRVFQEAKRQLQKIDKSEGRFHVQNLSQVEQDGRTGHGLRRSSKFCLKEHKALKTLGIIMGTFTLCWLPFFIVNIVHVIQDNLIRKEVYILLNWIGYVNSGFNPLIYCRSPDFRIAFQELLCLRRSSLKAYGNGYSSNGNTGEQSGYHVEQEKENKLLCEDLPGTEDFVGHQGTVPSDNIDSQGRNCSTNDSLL

solubility ([1]; water, read-out: solubility in water) [µg/mL] | solubility in 20 mM maleate buffer ([1]; 20 mM sodium maleate (pH 5.5), common ion effect) [µg/mL] | solubility ([1]; 20 mM sodium maleate buffer, pH 5.5, aqueous buffer, 20 mM sodium maleate (pH 5.5), common ion effect, read-out: solubility in 20 mM maleate buffer) [µg/mL] | Structure (SMILES) | duration of action [2] | onset of action [2]
200 |  |  | CCc1cc2c(cc1CC)CC(NC[C@H](O)c1ccc(O)c3[nH]c(=O)ccc13)C2 [indacaterol maleate, (R)-5-[2-(5,6-diethyl-indan-2-ylamino)-1-hydroxyethyl]-8-hydroxy-1H-quinolin-2-one] |  | 
 | 10 (≈ 25.5 µM) | ~10 (≈ 25.5 µM) | CCc1cc2c(cc1CC)CC(NC[C@H](O)c1ccc(O)c3[nH]c(=O)ccc13)C2 [indacaterol, (R)-5-[2-(5,6-diethyl-indan-2-ylamino)-1-hydroxyethyl]-8-hydroxy-1H-quinolin-2-one] | over 24 hours | about 10 minutes
